“And” between values parts separate entries of the source, which are not always exact repeats. Identical values can stand only once. Like-named read-outs stand apart in the source and are kept apart here.
How the values were obtained:
[1] = tested on: UGT2B4/2B7; conditions: cited from earlier work
[2] = probenecid 500-mg twice-daily dose
[3] = cited from earlier work; for Vss: after i.v. administration; for CLiv: intravenous plasma clearance
[4] = human ADME study, ref 12 (ertugliflozin), 23 (dapagliflozin), cited from earlier work; for Renal excretion of unchanged drug: % of dose
[5] = tested on: CYP3A5; experiment: CYP3A5 contribution to metabolism; assay type: in vitro ADME, human
[6] = PBPK model; design: species or system human
[7] = Human ADME study with 14C-labelled drug: excretion and metabolite recovery; assay type: in vivo; conditions: human ADME study (ertugliflozin ref 12, dapagliflozin ref 23)
[8] = tested on: CYP3A4; conditions: in vitro CYP reaction phenotyping, cited from earlier work
[9] = target: T1, UGT1A9 (Homo sapiens, UniProt O60656); conditions: in vitro UGT reaction phenotyping; cited from earlier work
T1 sequence (O60656 26-530): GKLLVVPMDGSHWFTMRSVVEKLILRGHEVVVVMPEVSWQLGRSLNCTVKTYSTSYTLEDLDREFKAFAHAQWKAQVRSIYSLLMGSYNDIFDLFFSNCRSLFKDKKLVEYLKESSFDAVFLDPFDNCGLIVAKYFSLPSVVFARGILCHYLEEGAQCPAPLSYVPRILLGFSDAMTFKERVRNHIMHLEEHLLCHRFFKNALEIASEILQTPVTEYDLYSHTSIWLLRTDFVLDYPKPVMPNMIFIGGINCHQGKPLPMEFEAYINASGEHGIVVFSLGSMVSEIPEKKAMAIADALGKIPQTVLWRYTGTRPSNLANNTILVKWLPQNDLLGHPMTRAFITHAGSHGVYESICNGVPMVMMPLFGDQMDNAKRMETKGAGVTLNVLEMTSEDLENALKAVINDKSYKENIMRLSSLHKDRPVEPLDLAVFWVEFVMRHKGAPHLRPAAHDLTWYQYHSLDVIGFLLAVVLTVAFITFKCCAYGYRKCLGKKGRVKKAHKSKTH

[10] = tested on: CYP3A4; experiment: CYP3A4 contribution to metabolism; assay type: in vitro ADME, human
[11] = tested on: CYP2C8; conditions: in vitro CYP reaction phenotyping, cited from earlier work
[12] = tested on: UGT2B7 (UGT2B4/2B7 contribution assigned to UGT2B7); experiment: UGT2B4/2B7 contribution to metabolism; assay type: in vitro ADME, human; conditions: human
[13] = tested on: UGT2B4/2B7; experiment: UGT2B4/2B7 contribution to metabolism; assay type: in vitro ADME, human; conditions: for fm,UGT2B7 observed: calculated from clinical ADME and reaction phenotyping data
[14] = tested on: UGT; conditions: ref 18 (ertugliflozin), 39 (dapagliflozin); cited from earlier work
[15] = blood/plasma ratio; ref 45 (ertugliflozin), 46 (dapagliflozin); cited from earlier work
[16] = tested on: CYP3A5; conditions: in vitro CYP reaction phenotyping, cited from earlier work
[17] = tested on: CYP2C8; experiment: CYP2C8 contribution to metabolism; assay type: in vitro ADME, human
[18] = Simcyp input, cited from earlier work; for LogP: ref 42 (ertugliflozin), DrugBank 50 (dapagliflozin), DrugBank 49 (MFA)
[19] = target: T1, UGT1A9; experiment: UGT1A9 contribution to metabolism; assay type: in vitro ADME; conditions: for fm,UGT1A9 observed: calculated from clinical ADME and reaction phenotyping data; for microsomal CLint: human
[20] = tested on: Caco‐2; conditions: ref 17 (ertugliflozin), 46 (dapagliflozin); cited from earlier work
[21] = fraction unbound in plasma; ref 45 (ertugliflozin), 46 (dapagliflozin); cited from earlier work
[22] = cited from earlier work
[23] = PBPK; design: species or system human; conditions: dapagliflozin with MFA
[24] = tested on: CYP; experiment: Overall oxidative; assay type: in vitro ADME; conditions: human, human liver microsomes (model input, not an incubation)
[25] = target: T2, UGT2B4 (Homo sapiens, UniProt P06133); experiment: Mefenamic acid inhibition of UGT2B4; assay type: biochemical; conditions: HLM, 1–100 µM
T2 sequence (P06133 24-528): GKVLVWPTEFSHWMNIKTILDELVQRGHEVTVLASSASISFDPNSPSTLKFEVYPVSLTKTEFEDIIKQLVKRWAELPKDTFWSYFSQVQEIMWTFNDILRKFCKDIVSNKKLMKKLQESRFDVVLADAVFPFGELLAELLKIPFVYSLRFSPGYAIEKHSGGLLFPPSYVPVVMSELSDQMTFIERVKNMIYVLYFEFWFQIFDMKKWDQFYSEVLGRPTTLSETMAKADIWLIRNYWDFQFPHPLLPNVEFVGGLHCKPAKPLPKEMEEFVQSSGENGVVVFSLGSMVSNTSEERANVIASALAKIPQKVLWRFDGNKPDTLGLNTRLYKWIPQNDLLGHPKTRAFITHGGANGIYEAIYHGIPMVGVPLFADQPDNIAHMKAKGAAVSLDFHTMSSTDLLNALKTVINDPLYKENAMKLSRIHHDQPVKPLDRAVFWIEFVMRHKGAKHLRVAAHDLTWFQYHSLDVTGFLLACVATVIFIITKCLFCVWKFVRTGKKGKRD

[26] = target: T1, UGT1A9; experiment: In vivo Ki of MFA fitted in the PBPK model to the clinical MFA–dapagliflozin DDI; conditions: UGT1A9 and UGT2B7, relative potencies kept
[27] = ref 15 (ertugliflozin), 38 (dapagliflozin)
[28] = ertugliflozin single oral dose 0.5 mg, geometric mean (%CV)
[29] = ertugliflozin single oral dose 2.5 mg, geometric mean (%CV)
[30] = ertugliflozin single oral dose 10 mg, geometric mean (%CV)
[31] = ertugliflozin single oral dose 30 mg, geometric mean (%CV)
[32] = ertugliflozin single oral dose 100 mg, geometric mean (%CV)
[33] = ertugliflozin single oral dose 300 mg, geometric mean (%CV)
[34] = retrospectively calculated from CLiv, CLr, CYP fm and reaction phenotyping
[35] = ertugliflozin multiple oral dose 5 mg once daily
[36] = ertugliflozin multiple oral dose 15 mg once daily
[37] = ertugliflozin single dose 0.1 mg administered intravenously
[38] = ertugliflozin single oral dose 0.5 mg
[39] = ertugliflozin single oral dose 2.5 mg
[40] = ertugliflozin single oral dose 10 mg
[41] = ertugliflozin single oral dose 15 mg
[42] = ertugliflozin single oral dose 30 mg
[43] = ertugliflozin single oral dose 100 mg
[44] = ertugliflozin single oral dose 300 mg
[45] = dapagliflozin multiple oral dose 10 mg once daily
[46] = dapagliflozin multiple oral dose 50 mg once daily
[47] = dapagliflozin single oral dose 10 mg, geometric mean
[48] = dapagliflozin single oral dose 10 mg

SMILES: Nc1nc(CC(=O)Nc2ccc(CCNC[C@H](O)c3ccccc3)cc2)cs1 [mirabegron]
- UGT2B7-mediated metabolism incorporated in PBPK model [1]: ~ 30%

SMILES: CCCN(CCC)S(=O)(=O)c1ccc(C(=O)O)cc1 [probenecid]
- estimated unbound maximum steady-state concentration (Cmax,ss,u) [2]: 29 µM

SMILES: CCOc1ccc(Cc2cc([C@]34OC[C@](CO)(O3)[C@@H](O)[C@H](O)[C@H]4O)ccc2Cl)cc1 [Ertugliflozin, ertugliflozin]
- Vss [3, 27]: 1.23 L/kg
- Observed AUCinf [3, 28]: 45.7 (10) ng·h/mL
- Observed Cmax [3, 28]: 7.23 (11) ng/mL
- Observed AUCinf [3, 29]: 231 (22) ng·h/mL
- Observed Cmax [3, 29]: 42.8 (21) ng/mL
- Observed AUCinf [3, 30]: 909 (15) ng·h/mL
- Observed Cmax [3, 30]: 182 (22) ng/mL
- Observed AUCinf [3, 31]: 2810 (18) ng·h/mL
- Observed Cmax [3, 31]: 545 (24) ng/mL
- Observed AUCinf [3, 32]: 9610 (16) ng·h/mL
- Observed Cmax [3, 32]: 1620 (16) ng/mL
- Observed AUCinf [3, 33]: 26400 (16) ng·h/mL
- Observed Cmax [3, 33]: 4330 (20) ng/mL
- Fa ([3]; fraction absorbed, absolute bioavailability study): 1.0
- CLiv [3, 27]: 11.2 L/h
- Renal excretion of unchanged drug [4]: ~ 2%
- Elimination by glucuronidation [4]: ~ 86%
- Elimination by oxidation (converted to oxidative metabolites) [4]: ~ 12%
- fm,CYP3A5 observed ([5]; fm,CYP × % contribution): 0.012
- CLint, CYP: CYP3A5 [5, 34]: 0.006 µL/min/pmol
- Relative contribution of UGT2B4/2B7 to glucuronidation ([1]; in vitro UGT reaction phenotyping, assigned to UGT2B7 in model): 19%
- AUC predicted/ observed ratio [6, 35]: 1.03
- Cmax predicted/ observed ratio [6, 35]: 1.22
- AUC predicted/ observed ratio [6, 36]: 0.97
- Cmax predicted/ observed ratio [6, 36]: 1.04
- AUC predicted/ observed ratio [6, 37]: 1.08
- Cmax predicted/ observed ratio [6, 37]: 0.98
- AUC predicted/ observed ratio [6, 38]: 0.82
- Cmax predicted/ observed ratio [6, 38]: 1.16
- AUC predicted/ observed ratio [6, 39]: 0.81
- Cmax predicted/ observed ratio [6, 39]: 0.98
- AUC predicted/ observed ratio [6, 40]: 0.82
- Cmax predicted/ observed ratio [6, 40]: 0.92
- AUC predicted/ observed ratio [6, 41]: 0.81
- Cmax predicted/ observed ratio [6, 41]: 0.97
- AUC predicted/ observed ratio [6, 42]: 0.80
- Cmax predicted/ observed ratio [6, 42]: 0.92
- AUC predicted/ observed ratio [6, 43]: 0.78
- Cmax predicted/ observed ratio [6, 43]: 1.04
- AUC predicted/ observed ratio [6, 44]: 0.83
- Cmax predicted/ observed ratio [6, 44]: 1.13
- Fe observed (fraction excreted unchanged in urine) [7]: 0.02
- Contribution of CYP3A4 to oxidative metabolism [8]: 86%
- Contribution of CYP3A4 to oxidative metabolism ([8]; listed as ertugliflozin): 86% and 85–100%
- Relative contribution of UGT1A9 to glucuronidation [9]: 81%
- fm,CYP3A4 observed ([10]; fm,CYP × % contribution): 0.103
- CLint, CYP: CYP3A4 [10, 34]: 0.041 µL/min/pmol
- Contribution of CYP2C8 to oxidative metabolism [11]: 4%
- Contribution of CYP2C8 to oxidative metabolism ([11]; listed as ertugliflozin): 4% and 0–4%
- microsomal CLint [12]: 8 µL/min/mg
- fm,UGT2B7 observed [13]: 0.16
- Share of systemic UGT clearance occurring in the liver [14]: 90%
- B/P ratio [15]: 0.66
- Contribution of CYP3A5 to oxidative metabolism [16]: 10%
- Contribution of CYP3A5 to oxidative metabolism ([16]; listed as ertugliflozin): 10% and 0–10%
- fm,CYP2C8 observed ([17]; fm,CYP × % contribution): 0.005
- CLint, CYP: CYP2C8 [17, 34]: 0.011 µL/min/pmol
- LogP [18]: 2.5
- fm,UGT1A9 observed [19]: 0.70
- microsomal CLint [19]: 35 µL/min/mg
- Caco‐2 permeability coefficient [20]: 4.1 10^–6 cm/s
- Fu,plasma [21]: 0.064

SMILES: CCOc1ccc(Cc2cc([C@@H]3O[C@H](CO)[C@@H](O)[C@H](O)[C@H]3O)ccc2Cl)cc1 [Dapagliflozin, dapagliflozin]
- Vss [3, 27]: 1.19 L/kg
- Observed Cmax [3, 45]: 119 ng/mL
- Observed Cmax [3, 46]: 728 ng/mL
- Observed AUCinf [3, 47]: 628 ng·h/mL
- Observed Cmax [3, 47]: 143 ng/mL
- CLiv [3, 27]: 12.4 L/h
- Absolute bioavailability (F) ([3]; oral, ref 15 (ertugliflozin), 38 (dapagliflozin)): 78%
- Renal excretion of unchanged drug [4]: 2%
- Elimination by glucuronidation [4]: 88%
- Elimination by oxidation (converted to oxidative metabolites) [4]: 10%
- AUC predicted/ observed ratio [6, 45]: 1.06
- Cmax predicted/ observed ratio [6, 45]: 1.03
- AUC predicted/ observed ratio [6, 46]: 1.06
- Cmax predicted/ observed ratio [6, 46]: 0.84
- AUC predicted/ observed ratio [6, 48]: 0.92
- Cmax predicted/ observed ratio [6, 48]: 0.87
- Fe observed (fraction excreted unchanged in urine) [7]: 0.02
- Increase in dapagliflozin exposure ([22]; co-administration with mefenamic acid): 51%
- AUCR predicted/observed ratio [23]: 1.0
- CmaxR predicted/observed ratio [23]: 1.0
- microsomal CLint [12]: 3 µL/min/mg
- fm,UGT2B7 observed [13]: 0.09
- Remaining UGT metabolism assigned to UGT2B7 ([13]; remainder after UGT1A9 contribution): 10%
- Share of systemic UGT clearance occurring in the liver [14]: 90%
- B/P ratio [15]: 0.88
- LogP [18]: 2.52
- fm,UGT1A9 observed [19]: 0.79
- microsomal CLint [19]: 30 µL/min/mg
- Relative contribution of UGT1A9 to UGT metabolism ([19]; in vitro UGT reaction phenotyping of this paper (HLM with UGT1A9 inhibitors)): 90%
- microsomal CLint [24]: 4 µL/min/mg
- Caco‐2 permeability coefficient [20]: 15.9 10^–6 cm/s

SMILES: Cc1ccc([C@@H]2O[C@H](CO)[C@@H](O)[C@H](O)[C@H]2O)cc1Cc1ccc(-c2ccc(F)cc2)s1 [canagliflozin]
- Increase in canagliflozin exposure ([22]; co-administration with probenecid): 21%

SMILES: Cc1cccc(Nc2ccccc2C(=O)O)c1C [MFA, mefenamic acid]
- Observed AUCinf ([3]; MFA single oral dose 500 mg): 34200 ng·h/mL
- Observed Cmax ([3]; MFA single oral dose 500 mg): 6900 ng/mL
- AUC predicted/ observed ratio ([6]; MFA single oral dose 500 mg): 0.89
- Cmax predicted/ observed ratio ([6]; MFA single oral dose 500 mg): 0.92
- Inhibition of UGT2B4 in vitro [25]: did not inhibit
- Fold adjustment of in vitro to in vivo UGT Ki values (increased potency) [26]: ~ 2.9 fold
- LogP [18]: 5.4
- pKa ([18]; ref DrugBank 49): 3.89
